Test [1] concerns Mus musculus. Kind of test: Inhibition of HCl/ethanol- induced gastric damage in Mus musculus (mouse) at 30 mg/kg. In kind it is functional. The conditions noted are these: Stomach.
Test [2] deals with Leishmania amazonensis. Description: Antiparasitic activity against Leishmania amazonensis MHOM/BR /77/LTB0016 promastigote at 16.8 uM. In kind it is functional.
In test [3] the test system is Leishmania amazonensis. Kind of test: Antiparasitic activity against Leishmania amazonensis MHOM/BR /77/LTB0016 after 24 hr. In kind it is functional, organism-based. The conditions noted are these: MHOM/BR /77/LTB0016, 24 h.
Test [4] deals with Mus musculus. Kind of test: Inhibition of HCl/ethanol- induced gastric damage in Mus musculus (mouse) at 10 mg/kg, po, sd. The conditions noted are these: Stomach. It is filed as functional.
Another test relates to HEp-2. Kind of test: Cytotoxicity against Homo sapiens (human) Hep2 cells. In kind it is cell-based.
Test [5] is described as follows: Cytotoxicity against Macaca mulatta (Rhesus monkey) MA104 cells. In kind it is cell-based.
In the next test the test system is Vero. Description: Cytotoxicity against […] Vero cells. To be noted: Chlorocebus sabaeus. In kind it is cell-based.
Test [6] is described as follows: Cytotoxicity against Macaca mulatta (Rhesus monkey) FRhK4 cells. It is filed as cell-based. To be noted: FRhK-4.
The next test has as its system Enterovirus C. Kind of test: Antiviral activity against Enterovirus C (Poliovirus) infected HeLa cells at 0.063 ug/ml. In kind it is functional.
In the next test the test system is Trypanosoma cruzi. Kind of test: Antitrypanosomal activity against trypomastigote of Trypanosoma cruzi Y infected in albino mouse assessed as reduction in parasitemia at 100 mg/kg, ip for 7 days. In kind it is functional. To be noted: 168 h, route intraperitoneal.
Test [7] has as its system Leishmania amazonensis. Description: Antiparasitic activity against Leishmania amazonensis MHOM/BR /77/LTB0016 promastigote at 460.8 uM. In kind it is functional.
Another test concerns DLD-1. Kind of test: Cytotoxicity against Homo sapiens (human) DLD1 cells after 24 to 48 hr by MTT assay. It is filed as functional, cell-based.
The next test relates to HCT-116. Description: Cytotoxicity against Homo sapiens (human) HCT116 cells after 24 to 48 hr by MTT assay. In kind it is functional, cell-based.
A further test concerns Caco-2. Description: Cytotoxicity against Homo sapiens (human) Caco2 cells after 24 to 48 hr by MTT assay. It is filed as functional, cell-based. In general terms: Tetrazolium assays rely on reduction of a dye to a coloured formazan, in cell work by metabolically active cells.
A short description of test [8]: Cytotoxicity against Mus musculus (mouse) EAT cells. In kind it is functional, cell-based.
The next test deals with HT-29. Kind of test: Cytotoxicity against Homo sapiens (human) HT-29 cells after 24 to 48 hr by MTT assay. In kind it is functional, cell-based.
Test [9] in a line: Cytotoxicity against Homo sapiens (human) Lymphocyte. It is filed as cell-based.
Another test relates to U-937. Description: Cytotoxicity against Homo sapiens (human) U937 cells. In kind it is functional, cell-based.
In another test the test system is K562. Description: Cytotoxicity against Homo sapiens (human) K562 cells. It is filed as functional, cell-based.
For a further test, the system named is V79. Kind of test: Cytotoxicity against Cricetulus griseus V79 cells. In kind it is functional, cell-based.
Another test relates to HL-60. Kind of test: Cytotoxicity against Homo sapiens (human) HL60 cells. It is filed as functional, cell-based.
The test system of a further test is NCI-H460. Kind of test: Cytotoxicity against Homo sapiens (human) NCI-H460 cells. In kind it is functional.
The next test concerns KM12. Description: Cytotoxicity against Homo sapiens (human) KM12 cells. It is filed as functional.
Another test has as its system MOLT-4. Kind of test: Cytotoxicity against Homo sapiens (human) MOLT4 cells. It is filed as functional.
The test system of test [10] is Mycobacterium tuberculosis. Description: Antimycobacterial activity against Mycobacterium tuberculosis H37Rv. It is filed as functional.

SMILES strings stand for the structures. Values after ≈ are worked out from the molar mass of the structure shown.

As to `Cc1c(OCC(F)(F)F)ccnc1C[S+]([O-])c1nc2ccccc2[nH]1` (configuration not stated) [LANSOPRAZOLE], the inhibition in vivo at 30 mg/kg with Mus musculus [1] came out at 63%.

Compound `N=C(N)c1ccc(OCCCCCOc2ccc(C(=N)N)cc2)cc1` [PENTAMIDINE] yielded an inhibition at 16.8 µM in the test on Leishmania amazonensis [2] of 100%. Besides, the EC50 in the test with Leishmania amazonensis [3] was 460 nM.

In the case of `O=C1NC(c2c[nH]c3ccc(O)cc23)=C/C1=C1\C(=O)Nc2ccccc21` [VIOLACEIN], at 10 mg/kg the inhibition in vivo in the test on Mus musculus [4] was 85%. Moreover, the half-maximal inhibitory concentration (IC50) with HEp-2 is 2200 nM; in test [5] it was 2200 nM; in the test on Vero it was 2200 nM; in test [6], 2200 nM; with DLD-1 it was greater than 1500 nM; in the test on HCT-116 it was greater than 1500 nM. The IC50 in the test on Caco-2 is greater than 1500 nM; in test [8], 5000 nM; with HT-29 it was greater than 1500 nM; in test [9], 10000 nM; with U-937 it was less than 1000 nM; in the test with K562 it was less than 1000 nM. For the same compound, the values for the IC50 in the test with V79 and with HL-60 were 5000 nM and 800 nM, respectively. The same compound registered an inhibition at 0.063 µg/mL in the test on Enterovirus C of 56%. The inhibition in vivo at 100 mg/kg in the test with Trypanosoma cruzi came to 4%. Also, in the test with Leishmania amazonensis [7], testing at 460.8 µM gave an inhibition of 100%. In addition, the response in the test with Leishmania amazonensis [3] was half-maximal at 4300 nM (EC50). Moreover, the GI50 in the test on NCI-H460, with KM12 and in the test on MOLT-4 was 30 nM throughout. Also, the MBC in test [10] worked out at 128 µg/mL (≈ 373 µM). Further, in test [10], 64 µg/mL (≈ 186 µM) was the least that counted as inhibitory (MIC).

One may read the inhibition in vivo as the percentage by which the read-out fell short of the control. Broadly, the inhibition is the drop in the measured response relative to a control, in per cent. What is called EC50 is the concentration needed to bring the measured effect to its halfway point. For orientation: IC50 means the concentration that gives 50% inhibition. Low values mean higher potency, high ones lower potency. As usually defined, the GI50 is the concentration giving 50% growth inhibition. Read a high GI50 as lower sensitivity of the cells. In general, MBC refers to the lowest tested concentration that kills the bacteria rather than only halting them. Read a low MBC as greater bactericidal potency. Usually MIC stands for the least concentration at which growth counts as inhibited.

For the origin of these results see ChEMBL document CHEMBL3046567, “Potential applications of violacein: a microbial pigment” (Med Chem Res, 2012).
